Assay [1] concerns the target WT hSLACK (Homo sapiens, UniProt Q5JUK3). Put plainly: Whole-cell automated patch-clamp (APC) in CHO cells stably expressing WT hSLACK. Type of assay: cell-based. To be noted: range across the three variants, APC; read-out: IC50 values across WT, A934T, and G288S SLACK. The method, boiled down:
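CHO-K1 cells stably expressing human SLACK were whole-cell recorded at room temperature with Na/NMDG external solution pH 7.4 and KF-based internal pH 7.2. Concentrations 0.125–30 μM in half-log steps, ≥3 cells each; ramp and step protocol from −80 mV holding, current at 0 mV normalized to post-buffer current, IC50 from median of last 7 amplitudes.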

The target of assay [2] is T1, mouse WT SLACK (Mus musculus, UniProt Q6ZPR4).
T1 construct: expressed in transfected cells; host or cells: CHO
T1 sequence (Q6ZPR4 1-1224): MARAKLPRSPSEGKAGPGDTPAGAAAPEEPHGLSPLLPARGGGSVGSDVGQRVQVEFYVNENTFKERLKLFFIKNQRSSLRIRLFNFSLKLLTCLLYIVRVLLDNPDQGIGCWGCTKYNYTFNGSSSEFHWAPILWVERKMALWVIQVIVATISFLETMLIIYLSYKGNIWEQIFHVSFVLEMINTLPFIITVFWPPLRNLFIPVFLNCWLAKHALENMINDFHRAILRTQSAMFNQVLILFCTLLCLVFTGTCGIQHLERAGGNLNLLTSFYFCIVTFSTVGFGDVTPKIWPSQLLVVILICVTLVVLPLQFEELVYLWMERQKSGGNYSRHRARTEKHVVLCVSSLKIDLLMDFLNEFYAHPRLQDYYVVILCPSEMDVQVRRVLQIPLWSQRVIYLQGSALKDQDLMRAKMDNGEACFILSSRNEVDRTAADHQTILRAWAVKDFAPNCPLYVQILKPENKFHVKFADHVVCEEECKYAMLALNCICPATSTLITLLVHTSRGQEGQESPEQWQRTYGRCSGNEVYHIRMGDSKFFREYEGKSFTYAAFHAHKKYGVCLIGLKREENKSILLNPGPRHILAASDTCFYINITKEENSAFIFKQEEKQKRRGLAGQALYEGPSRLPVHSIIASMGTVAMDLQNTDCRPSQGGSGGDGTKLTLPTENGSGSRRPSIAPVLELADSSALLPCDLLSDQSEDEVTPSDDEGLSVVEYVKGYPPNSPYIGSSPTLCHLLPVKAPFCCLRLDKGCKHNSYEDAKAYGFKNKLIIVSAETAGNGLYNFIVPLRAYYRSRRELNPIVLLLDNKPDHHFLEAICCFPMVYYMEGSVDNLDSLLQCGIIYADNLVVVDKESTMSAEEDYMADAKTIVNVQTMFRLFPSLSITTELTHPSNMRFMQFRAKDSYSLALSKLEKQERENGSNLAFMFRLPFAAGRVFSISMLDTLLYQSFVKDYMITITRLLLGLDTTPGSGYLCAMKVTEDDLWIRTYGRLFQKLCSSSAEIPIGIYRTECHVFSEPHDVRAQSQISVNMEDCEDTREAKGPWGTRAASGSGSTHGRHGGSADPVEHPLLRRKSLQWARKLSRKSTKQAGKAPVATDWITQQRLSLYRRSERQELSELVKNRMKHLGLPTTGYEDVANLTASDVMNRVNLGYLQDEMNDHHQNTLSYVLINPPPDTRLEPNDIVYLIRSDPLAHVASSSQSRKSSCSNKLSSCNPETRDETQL
Put plainly: Whole-cell APC in CHO cells stably expressing mouse WT SLACK. The class given is cell-based. To be noted: for IC50: APC, CHO cells; for Imax: maximum inhibition at 30 µM standardized to VU0606170 (100%). The source says: Development of a useful SLACK inhibitor in vivo tool will require potent activity at the corresponding mouse ortholog as studies in appropriate mouse models will be critical. Thus, we evaluated analogs 32 and 48 in our APC assay using CHO cells stably expressing mouse WT SLACK (Table 6). […] We were also eager to evaluate the same compounds with regard to their ability to inhibit clinically relevant GOF SLACK mutants. Both the C-terminus A934T mutant and transmembrane G288S mutant have been associated with clinical cases of EIMFS [3, 7].
Automated patch-clamp recording was performed with a SyncroPatch 768 PE system (Nanion, Munich, Germany) as previously described. Whole-cell recordings were performed at room temperature. Cells were harvested by first washing with PBS without Mg^2+ or Ca^2+ (Gibco, Billings, MT, USA) to remove cell culture media, followed by dissociation with TryPLE (Gibco, Billings, MT, USA). Cells were then resuspended and diluted to 100,000 cells/mL in external solution. External solution contained 105 mM NaCl, 4 mM KCl, 1 mM MgCl2, 5 mM CaCl2, 10 mM HEPES, and 40 mM N-Methyl-D-glucamine chloride, titrated to pH of 7.4 and osmolarity of 300 mOsm/kg; internal solution contained 70 mM NaCl, 70 mM KF, 10 mM KCl, 5 mM EGTA, and 5 mM HEPES, titrated to a pH of 7.2 and osmolarity of 295 mOsm/kg.
The APC protocol was set as follows: Cells were held at a […] of −80 mV for 100 ms, then a ramp protocol was performed from −100 mV to 80 mV at 0.4 mV/ms, followed by holding the cell at −80 mV for another 100 ms, then steps were performed at −20 mV, 0 mV, +20 mV, +40 mV, and +60 mV for 100 ms of each step. Whole-cell currents were measured at 0 mV and normalized to current after external buffer addition. […] To obtain the concentration-response relationship graphs and IC50 values, we take the median value of the last 7 current amplitude values obtained for each set of data points collected for a given concentration at a particular step.

Sequence of WT hSLACK (Q5JUK3 whole entry): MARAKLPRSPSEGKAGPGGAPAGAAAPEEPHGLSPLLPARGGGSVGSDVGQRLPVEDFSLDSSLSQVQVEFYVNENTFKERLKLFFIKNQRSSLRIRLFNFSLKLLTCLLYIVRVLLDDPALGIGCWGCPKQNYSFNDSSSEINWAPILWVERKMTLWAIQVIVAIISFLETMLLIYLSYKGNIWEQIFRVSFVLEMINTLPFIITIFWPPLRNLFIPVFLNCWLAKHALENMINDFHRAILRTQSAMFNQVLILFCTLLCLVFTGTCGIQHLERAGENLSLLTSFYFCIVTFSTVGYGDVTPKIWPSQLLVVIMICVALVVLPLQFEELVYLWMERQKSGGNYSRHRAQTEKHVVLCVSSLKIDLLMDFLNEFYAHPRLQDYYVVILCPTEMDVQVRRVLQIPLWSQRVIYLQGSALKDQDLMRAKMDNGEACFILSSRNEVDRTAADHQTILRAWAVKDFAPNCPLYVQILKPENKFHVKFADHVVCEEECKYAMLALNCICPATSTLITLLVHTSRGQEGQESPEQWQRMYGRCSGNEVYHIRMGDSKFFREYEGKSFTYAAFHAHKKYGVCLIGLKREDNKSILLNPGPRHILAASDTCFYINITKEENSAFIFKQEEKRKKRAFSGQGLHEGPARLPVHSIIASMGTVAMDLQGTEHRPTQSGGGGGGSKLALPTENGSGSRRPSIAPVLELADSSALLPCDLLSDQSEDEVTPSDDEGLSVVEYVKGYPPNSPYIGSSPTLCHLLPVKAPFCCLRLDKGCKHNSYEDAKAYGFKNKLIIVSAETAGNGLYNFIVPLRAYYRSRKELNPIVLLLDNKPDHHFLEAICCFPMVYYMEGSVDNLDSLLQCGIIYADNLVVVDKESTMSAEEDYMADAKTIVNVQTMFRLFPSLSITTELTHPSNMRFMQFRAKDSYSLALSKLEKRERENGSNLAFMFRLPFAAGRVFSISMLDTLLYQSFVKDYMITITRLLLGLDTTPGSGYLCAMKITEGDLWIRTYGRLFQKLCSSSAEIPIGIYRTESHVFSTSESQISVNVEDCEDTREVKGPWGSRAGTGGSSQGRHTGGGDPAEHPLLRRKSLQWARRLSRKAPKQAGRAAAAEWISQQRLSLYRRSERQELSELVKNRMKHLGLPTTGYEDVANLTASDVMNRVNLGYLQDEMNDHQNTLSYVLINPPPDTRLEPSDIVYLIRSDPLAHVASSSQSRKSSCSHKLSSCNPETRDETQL

For the compound `CCCCN(Cc1ccc(F)cc1)c1nc2c(c(=O)n(Cc3cccc(OC)c3)c(=O)n2C)n1C` [Analog 80], the IC50 in assay [1] was in the range of 590 to 710 nM. On to `CN(Cc1cccc(F)c1)c1nc2c(c(=O)n(Cc3ccccc3)c(=O)n2C)n1C` [Analog 48], for which, in assay [2], inhibition was half-maximal at 1300 nM (IC50) and the Imax was determined as 100%. On to `COc1cccc(Cn2c(=O)c3c(nc(N(C)Cc4ccccc4)n3C)n(C)c2=O)c1` [Analog 32], for which, in assay [2], half-maximal inhibition (IC50) required 1400 nM and the Imax is 100%.

The values are drawn from paper PMC11173529, “Structure–Activity Relationship Studies in a Series of Xanthine Inhibitors of SLACK Potassium Channels” (Molecules, 2024).
